Assay results as given in PubChem BioAssay (NCI).
“And” between values parts separate entries of the source, which are not always exact repeats. Equal entries are not always repeated.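 Five concentrations, 48 hours, 96-well plates. The concentration for 50% growth inhibition is given as GI50. TGI: concentration producing complete growth inhibition.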

Legend:
Assay in all cases: inhibition of tumour cell growth, NCI panel, 48 h
NCI/ADR-RES ovarian = tested on: NCI/ADR-RES ovarian
CAKI-1 renal = tested on: CAKI-1 renal
SK-MEL-2 melanoma = tested on: SK-MEL-2 melanoma
KM12 colon = tested on: KM12 colon
NCI-H226 lung = tested on: NCI-H226 lung
HOP-62 NSCLC = tested on: HOP-62 NSCLC
HCT-15 colon = tested on: HCT-15 colon
MDA-N = tested on: MDA-N
786-0 renal = tested on: 786-0 renal
UACC-257 melanoma = tested on: UACC-257 melanoma
K-562 leukemia = tested on: K-562 leukemia

C[C@H](CCC1=NCCN1)[C@H]1CC[C@H]2[C@@H]3CC[C@@H]4C[C@H](O)CC[C@]4(C)[C@H]3C[C@H](O)[C@]12C
TGI (NCI/ADR-RES ovarian): > 100 µM
TGI (CAKI-1 renal): 43.8 µM
TGI (SK-MEL-2 melanoma): 26.7 µM
TGI (KM12 colon): 24.1 µM
TGI (NCI-H226 lung): 31 µM
TGI (HOP-62 NSCLC): 28.9 µM
TGI (HCT-15 colon): > 100 µM
TGI (MDA-N): 31 µM
TGI (786-0 renal): 33 µM
TGI (UACC-257 melanoma): 28.7 µM
TGI (K-562 leukemia): 21 µM

O=c1[nH]c2ccccc2c2oc(-c3ccccc3)nc12
TGI (NCI/ADR-RES ovarian): > 100 µM
TGI (CAKI-1 renal): 34.4 µM
TGI (SK-MEL-2 melanoma): > 100 µM
TGI (KM12 colon): > 100 µM
TGI (NCI-H226 lung): > 100 µM
TGI (HOP-62 NSCLC): 39 µM
TGI (HCT-15 colon): > 100 µM
TGI (MDA-N): 46.6 µM
TGI (786-0 renal): 56.1 µM
TGI (UACC-257 melanoma): > 100 µM
TGI (K-562 leukemia): > 100 µM

CN(C)CC(NC(NCS)C(=O)NCCNc1ccc(NCCNC(=O)C(NCS)NC(CN(C)C)OCCl)c2c1C(=O)c1c(O)ccc(O)c1C2=O)OCCl (configuration not stated)
GI50 (NCI/ADR-RES ovarian): 0.287 µM
TGI (NCI/ADR-RES ovarian): 4.99 µM and 5.04 µM
TGI (CAKI-1 renal): 0.119 µM
TGI (SK-MEL-2 melanoma): 2.99 µM
GI50 (KM12 colon): 0.211 µM
TGI (KM12 colon): 1.53 µM and 1.84 µM
GI50 (NCI-H226 lung): 0.285 µM
TGI (NCI-H226 lung): 0.418 µM and 1.61 µM
TGI (HOP-62 NSCLC): 0.482 µM
GI50 (HCT-15 colon): 0.0892 µM
TGI (HCT-15 colon): 1.73 µM and 1.74 µM
TGI (MDA-N): 1.09 µM
TGI (UACC-257 melanoma): 3.6 µM

CS(=O)(=O)O.[Ag]
TGI (NCI/ADR-RES ovarian): 74.3 µM
TGI (CAKI-1 renal): 34.2 µM
TGI (SK-MEL-2 melanoma): 30.2 µM
TGI (KM12 colon): 89.8 µM
TGI (NCI-H226 lung): 51.4 µM
TGI (HOP-62 NSCLC): 65.9 µM
TGI (HCT-15 colon): 36.5 µM
TGI (MDA-N): 19.9 µM
TGI (786-0 renal): 29.9 µM
TGI (UACC-257 melanoma): 24.4 µM
TGI (K-562 leukemia): 4.96 µM

CCS(=O)(=O)c1c2cc(OC)ccc2nc2ccc(OC)cc12
TGI (NCI/ADR-RES ovarian): > 100 µM
TGI (CAKI-1 renal): > 100 µM
TGI (SK-MEL-2 melanoma): > 100 µM
TGI (KM12 colon): > 100 µM
TGI (NCI-H226 lung): > 100 µM
TGI (HOP-62 NSCLC): > 100 µM
TGI (HCT-15 colon): > 100 µM
TGI (MDA-N): > 100 µM
TGI (786-0 renal): > 100 µM
TGI (UACC-257 melanoma): > 100 µM
TGI (K-562 leukemia): > 100 µM

Cc1cc(N=C2C=C(Nc3cc(C)on3)C(=O)c3ccccc32)no1
TGI (NCI/ADR-RES ovarian): > 100 µM
TGI (CAKI-1 renal): > 100 µM
TGI (SK-MEL-2 melanoma): 72.5 µM
TGI (KM12 colon): > 100 µM
TGI (NCI-H226 lung): > 100 µM
TGI (HOP-62 NSCLC): > 100 µM
TGI (HCT-15 colon): > 100 µM
TGI (MDA-N): 4.02 µM
TGI (786-0 renal): 98.8 µM
TGI (UACC-257 melanoma): 47 µM
TGI (K-562 leukemia): > 100 µM

COc1ccc2c(c1)-c1nn(CCN(C)C)c3ccc(C(=O)NCCCN(C)CCCNC(=O)c4ccc5c6c(nn5CCN(C)C)-c5cc(OC)ccc5Nc46)c(c13)N2
TGI (NCI/ADR-RES ovarian): > 62.9 µM
TGI (CAKI-1 renal): 8.12 µM
TGI (SK-MEL-2 melanoma): 0.25 µM
TGI (NCI-H226 lung): 0.541 µM
TGI (HOP-62 NSCLC): 1.32 µM
TGI (HCT-15 colon): 10.9 µM
TGI (MDA-N): 0.564 µM
TGI (786-0 renal): 1.9 µM
TGI (UACC-257 melanoma): 0.614 µM
TGI (K-562 leukemia): 1.14 µM

O=C(O)C1SCCS1
TGI (NCI/ADR-RES ovarian): > 100 µM
TGI (NCI-H226 lung): > 100 µM
TGI (HOP-62 NSCLC): > 100 µM
TGI (HCT-15 colon): > 100 µM
TGI (MDA-N): > 100 µM
TGI (786-0 renal): > 100 µM
TGI (UACC-257 melanoma): > 100 µM
TGI (K-562 leukemia): > 100 µM

O=C(CCCn1ccnc1[N+](=O)[O-])NCCn1ccnc1[N+](=O)[O-]
TGI (NCI/ADR-RES ovarian): > 100 µM
TGI (CAKI-1 renal): > 100 µM
TGI (SK-MEL-2 melanoma): > 100 µM
TGI (KM12 colon): > 100 µM
TGI (NCI-H226 lung): > 100 µM
TGI (HOP-62 NSCLC): > 100 µM
TGI (HCT-15 colon): > 100 µM
TGI (MDA-N): > 100 µM
TGI (786-0 renal): > 100 µM
TGI (UACC-257 melanoma): > 100 µM
TGI (K-562 leukemia): > 100 µM

CCOc1cc(C2SCC(=O)N2c2nc3cc4sc(N5C(=O)CSC5c5ccc(O)c(OCC)c5)nc4cc3s2)ccc1O (configuration not stated)
TGI (NCI/ADR-RES ovarian): > 100 µM
TGI (CAKI-1 renal): > 100 µM
TGI (SK-MEL-2 melanoma): > 100 µM
TGI (KM12 colon): > 100 µM
TGI (NCI-H226 lung): > 94.4 µM
TGI (HOP-62 NSCLC): > 100 µM
TGI (HCT-15 colon): > 100 µM
TGI (MDA-N): > 100 µM
TGI (786-0 renal): > 100 µM
TGI (UACC-257 melanoma): > 58.5 µM
TGI (K-562 leukemia): > 100 µM

CN(C)CCn1c(=O)c2ccc3c4c(nn3CCN(C)C)c3ccccc3n(c1=O)c24
TGI (NCI/ADR-RES ovarian): 2.58 µM
TGI (CAKI-1 renal): 0.52 µM
TGI (SK-MEL-2 melanoma): 1.17 µM
TGI (KM12 colon): 9.91 µM
TGI (NCI-H226 lung): 2.92 µM
TGI (HOP-62 NSCLC): 1.88 µM
TGI (HCT-15 colon): 1.39 µM
TGI (MDA-N): 0.97 µM
TGI (786-0 renal): 0.961 µM
TGI (UACC-257 melanoma): 3.24 µM
TGI (K-562 leukemia): 2.49 µM

NCCCCNC1(c2cc3ccccc3s2)CCCCC1
TGI (NCI/ADR-RES ovarian): 21.2 µM
TGI (CAKI-1 renal): 28.1 µM
TGI (SK-MEL-2 melanoma): 3.58 µM
TGI (KM12 colon): 10.7 µM
TGI (NCI-H226 lung): 34 µM
TGI (HOP-62 NSCLC): 20 µM
TGI (HCT-15 colon): 17.7 µM
TGI (MDA-N): 3.39 µM
TGI (786-0 renal): 3.95 µM
TGI (UACC-257 melanoma): 3.38 µM
TGI (K-562 leukemia): 3.56 µM

CN(c1ccccc1Cl)S(=O)(=O)c1ccccc1[N+](=O)[O-]
TGI (NCI/ADR-RES ovarian): 95.9 µM
TGI (CAKI-1 renal): > 100 µM
TGI (SK-MEL-2 melanoma): > 100 µM
TGI (KM12 colon): > 100 µM
TGI (NCI-H226 lung): > 100 µM
TGI (HOP-62 NSCLC): > 100 µM
TGI (HCT-15 colon): > 100 µM
TGI (MDA-N): > 100 µM
TGI (786-0 renal): > 100 µM
TGI (UACC-257 melanoma): > 100 µM
TGI (K-562 leukemia): > 100 µM

C#CCOC(=O)C(N)CCCN=C(N)N (configuration not stated)
TGI (NCI/ADR-RES ovarian): > 100 µM
TGI (CAKI-1 renal): > 100 µM
TGI (SK-MEL-2 melanoma): > 100 µM
TGI (KM12 colon): > 100 µM
TGI (NCI-H226 lung): > 100 µM
TGI (HOP-62 NSCLC): > 100 µM
TGI (HCT-15 colon): > 100 µM
TGI (MDA-N): > 100 µM
TGI (786-0 renal): > 100 µM
TGI (UACC-257 melanoma): > 100 µM

O=C1C(N=Nc2ccc(-c3nc4ccccc4[nH]3)cc2)NC(=S)N1c1ccccc1 (configuration not stated)
TGI (NCI/ADR-RES ovarian): > 100 µM
TGI (CAKI-1 renal): > 100 µM
TGI (SK-MEL-2 melanoma): > 100 µM
TGI (KM12 colon): 37.5 µM
TGI (NCI-H226 lung): > 100 µM
TGI (HOP-62 NSCLC): > 100 µM
TGI (HCT-15 colon): 43.8 µM
TGI (MDA-N): > 100 µM
TGI (786-0 renal): 39 µM
TGI (UACC-257 melanoma): > 100 µM
TGI (K-562 leukemia): 35.8 µM

CC1(C)[C@@H]2C[C@H]1C(Cc1cccc(C[C@H]3c4cc(-c5ccccn5)ncc4[C@H]4C[C@@H]3C4(C)C)c1)c1cc(-c3ccccn3)ncc12 (some centres not stated)
TGI (NCI/ADR-RES ovarian): > 57.6 µM
TGI (CAKI-1 renal): > 100 µM
TGI (SK-MEL-2 melanoma): > 100 µM
TGI (KM12 colon): > 76.9 µM
TGI (HOP-62 NSCLC): 15.5 µM
TGI (HCT-15 colon): > 53 µM
TGI (MDA-N): > 100 µM
TGI (UACC-257 melanoma): > 42.4 µM
TGI (K-562 leukemia): > 100 µM

Cn1ccc(C(=O)NCCCCCNC(=O)c2ccn(C)c(=O)c2O)c(O)c1=O
TGI (NCI/ADR-RES ovarian): > 100 µM
TGI (CAKI-1 renal): > 100 µM
TGI (SK-MEL-2 melanoma): > 100 µM
TGI (KM12 colon): > 100 µM
TGI (NCI-H226 lung): > 100 µM
TGI (HCT-15 colon): > 100 µM
TGI (MDA-N): > 100 µM
TGI (786-0 renal): > 100 µM
TGI (UACC-257 melanoma): > 100 µM

CC(C)C(C/C=C1\CC(CO)(COC(=O)CC(C(C)C)C(C)C)OC1=O)C(C)C (configuration not stated)
TGI (NCI/ADR-RES ovarian): 31.8 µM
TGI (CAKI-1 renal): 20.3 µM
TGI (SK-MEL-2 melanoma): 38.2 µM
TGI (KM12 colon): 28.6 µM
TGI (NCI-H226 lung): 24.4 µM
TGI (HOP-62 NSCLC): 20.5 µM
TGI (HCT-15 colon): 34.9 µM
TGI (MDA-N): 18 µM
TGI (786-0 renal): 21.1 µM
TGI (UACC-257 melanoma): 29.5 µM
TGI (K-562 leukemia): 19.6 µM

COc1cc(C(SCc2ccccc2)SCc2ccccc2)ccc1O
TGI (NCI/ADR-RES ovarian): > 10 µM
TGI (CAKI-1 renal): > 10 µM
TGI (SK-MEL-2 melanoma): > 10 µM
TGI (KM12 colon): > 10 µM
TGI (NCI-H226 lung): > 10 µM
TGI (HOP-62 NSCLC): > 10 µM
TGI (HCT-15 colon): > 10 µM
TGI (MDA-N): > 10 µM
TGI (786-0 renal): > 10 µM
TGI (K-562 leukemia): > 10 µM

O=C(c1ccccc1)N1C(=S)N(c2ccc([N+](=O)[O-])cc2)C(=Nc2ccccc2)C1=Nc1ccccc1
TGI (NCI/ADR-RES ovarian): > 100 µM
TGI (CAKI-1 renal): > 100 µM
TGI (SK-MEL-2 melanoma): > 100 µM
TGI (KM12 colon): > 100 µM
TGI (NCI-H226 lung): > 100 µM
TGI (HOP-62 NSCLC): > 100 µM
TGI (HCT-15 colon): > 100 µM
TGI (MDA-N): > 100 µM
TGI (786-0 renal): > 100 µM
TGI (UACC-257 melanoma): > 100 µM
TGI (K-562 leukemia): > 100 µM
